Test results taken from ChEMBL document CHEMBL5727703, “Bicyclic hydroxamic acids useful as inhibitors of mammalian histone deacetylase activity” (2020).

Target: T1, Protein deacetylase HDAC6 (Homo sapiens, UniProt Q9UBN7)
T1 sequence (Q9UBN7 whole entry): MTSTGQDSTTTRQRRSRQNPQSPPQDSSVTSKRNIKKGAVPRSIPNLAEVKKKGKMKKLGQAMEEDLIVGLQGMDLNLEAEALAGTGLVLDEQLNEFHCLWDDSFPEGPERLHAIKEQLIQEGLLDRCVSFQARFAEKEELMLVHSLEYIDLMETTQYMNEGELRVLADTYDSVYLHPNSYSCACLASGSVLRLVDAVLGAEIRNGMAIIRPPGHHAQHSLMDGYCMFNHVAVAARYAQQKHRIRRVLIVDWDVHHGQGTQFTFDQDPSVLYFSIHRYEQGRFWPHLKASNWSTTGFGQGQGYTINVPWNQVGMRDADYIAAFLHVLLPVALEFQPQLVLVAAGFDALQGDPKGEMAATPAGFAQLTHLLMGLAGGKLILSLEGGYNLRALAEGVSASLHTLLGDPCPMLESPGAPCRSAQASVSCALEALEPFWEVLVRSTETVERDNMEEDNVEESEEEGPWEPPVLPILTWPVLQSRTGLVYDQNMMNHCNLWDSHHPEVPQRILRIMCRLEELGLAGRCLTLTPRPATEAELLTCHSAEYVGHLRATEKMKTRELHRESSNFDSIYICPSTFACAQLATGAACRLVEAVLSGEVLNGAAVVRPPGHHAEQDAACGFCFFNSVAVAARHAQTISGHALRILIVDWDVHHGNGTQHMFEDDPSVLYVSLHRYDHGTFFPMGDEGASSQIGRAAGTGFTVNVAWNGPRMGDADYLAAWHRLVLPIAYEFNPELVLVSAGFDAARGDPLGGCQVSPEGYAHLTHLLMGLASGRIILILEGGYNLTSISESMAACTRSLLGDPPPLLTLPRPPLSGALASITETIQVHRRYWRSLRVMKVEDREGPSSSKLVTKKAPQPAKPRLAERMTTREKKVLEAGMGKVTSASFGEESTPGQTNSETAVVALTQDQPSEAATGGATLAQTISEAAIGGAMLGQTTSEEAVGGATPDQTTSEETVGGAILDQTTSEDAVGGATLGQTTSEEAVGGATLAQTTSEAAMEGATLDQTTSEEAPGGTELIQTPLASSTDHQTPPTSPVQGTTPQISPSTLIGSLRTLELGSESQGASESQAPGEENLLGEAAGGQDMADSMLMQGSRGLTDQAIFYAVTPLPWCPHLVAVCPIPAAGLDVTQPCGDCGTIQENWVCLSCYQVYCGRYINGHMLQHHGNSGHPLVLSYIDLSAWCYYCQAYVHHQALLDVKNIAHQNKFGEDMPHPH
Assay: In Vitro Enzymatic Assay: The assay principle is well known and all necessary reagents like enzymes, substrates, developer and reference compounds are commercially available. Stock solutions (10 mM in DMSO) of compounds were serially diluted 1:3 in 11 concentrations with a top concentration of 200 μM for HDAC1,2,3 and 2 μM for HDAC6 and HDAC8. The enzymatic reactions were conducted in a mixture containing assay buffer, bovine serum albumin, HDAC substrate, and a test compound. After enzymatic reaction, developer was added and after an additional incubation time, fluorescence intensity was measured at an excitation wavelength of 360 nm and an emission wavelength of 460 nm. All experiments were performed in duplicate.

Cn1cc(CNCC2CCN(c3nc4cc(C(=O)NO)ccc4o3)CC2)c2ccccc21
IC50: 41 nM
